According to patent US5843916A, “Cyclic amp analogues, individually and in pairs, to inhibit neoplastic cell growth” (priority 1994, dated 1998):
Entries after “also recorded” stand apart in the source; their conditions may differ. Where two headings read alike, the source gives them in different places. Each block holds one molecule with its values, some of them ahead of it.

Legend:
[1] = test system: breast and colon cancer lines (MCF-7, T-47D, ZR-75-1, MCF-7ras, MDA-MB-231, BT-20, HBL-100, LS-174T, WiDr, HT-29); assay: Growth inhibition of breast and colon cancer lines (FIG. 1); type: cell-based, human
[2] = test system: p21 ras protein, MCF-7 cells; assay: Western blotting of p21 ras protein (Table 11, FIG. 7); type: cell-based, human; conditions: for p21 (Relative Level): 3 days, 8-Cl-cAMP 10 μM, 8-Cl-adenosine 5 μM, DBcAMP 500 μM, control = 1.0 O.D.; for p21 level: three days
Experimental: Western blotting of p21 protein was performed as described below. […] V is cell lysate from Ha-MuSV-transformed NIH3T3 clone 13-3B-4. M, marker proteins of known molecular weight.
Each lane contained 100 micrograms of protein for SDS-PAGE.
Cellular proteins present in cell extracts were separated by 12% SDS-PAGE and transferred to nitrocellulose sheets in transfer buffer (25 mM Tris, 192 mM glycine, 20% methanol, pH 7.4). Nitrocellulose sheets were washed and first incubated with 3% bovine serum albumin in NTE-NP40 (50 mM Tris-HCl, pH 7.5, 150 mM NaCl, 2 mM EDTA, 0.1% Nonidet P-40) for three hours at 37° C. and then sequentially incubated with medium containing p21 monoclonal antiserum Y13-259 directed against the Ha-MuSV-encoded p21 for sixteen hours at 4° C., rabbit anti-rat IgG for 2.5 hours in an ice water bath, and 5×10^5 cpm/ml ^125 I-protein A for one hour in an ice water bath. The nitrocellulose sheets were air dried and exposed to Kodak XAR film for 12-36 hours at -20° C. Comparison of the resulting autoradiograms with others in which normal rat serum was substituted for p21 monoclonal antibody permitted identification of p21. To provide a reference p21, cell lysates were prepared from NIH 3T3 clone 13-3B-4 that had been transfected with HaMuSV DNA.
The levels of p21 protein are expressed relative to the p21 level in the untreated control cells which is set equal to 1.0 O.D.

DMBA-1 mammary carcinoma = assay: Growth of transplantable mammary carcinoma, pellet (Table 5); type: in vivo, rat; conditions: for Change in mean tumor volume (cm^3) / Change in mean tumor volume (%): pellet with 10 mg analogue, day 7; for Change in mean tumor volume (%): none = 100
Experimental: Based on the findings with the […] leukemia model, the efficacy of the 8-Cl-cAMP-Na+infusions were evaluated in advanced-stage human tumor xenograft models. Tumor fragments of approximately 14 mg were implanted subcutaneously in athymic CD-1 female mice and seven day intraperitoneal infusions of the cyclic nucleotide were initiated three weeks later when mean tumor weights had reached 300-400 mg. Tumor measurements were recorded on the initial day of treatment (staging day) and one day after treatment was completed (staging day +7), and were used to calculate changes in tumor weights.
DMBA-1, a variant of primary hormonedependent DMBA tumor,
hormoneindependent and transplantable.
8Cl-cAMP and DBcAMP were given as a 20mg pellet consisting of 10 mg of […]

HL-60 = assay: Growth inhibition of leukemic cells (Table 12); type: cell-based; conditions: Homo sapiens
Molt-4 = assay: Growth inhibition of leukemic cells (Table 12); type: cell-based, human; conditions: for IC50: Homo sapiens, MOLT-4
K-562 = assay: Growth inhibition of leukemic cells (Table 12); type: cell-based; conditions: Homo sapiens, K562
myc-K562 = assay: Growth inhibition of leukemic cells (Table 12); type: cell-based; conditions: Homo sapiens
[3] = test system: RI cAMP receptor protein, Molt-4 leukemic cells; assay: Photoaffinity labelling of RI cAMP receptor protein (FIG. 9A); type: cell-based, human; conditions: three days; 8-Cl-cAMP 5 μM, DBcAMP 1 mM, 8-Cl-adenosine 5 μM
[4] = test system: c-myc protein, Molt-4 leukemic cells; assay: Western blotting of c-myc protein (FIG. 9B); type: cell-based, human; conditions: three days; 8-Cl-cAMP 5 μM, DBcAMP 1 mM, 8-Cl-adenosine 5 μM
Experimental: The cells were grown in suspension culture in RPMI 1640 medium supplemented with 10% fetal bovine serum, penicillin (50 U/ml), streptomycin (500 μg/mL), 10 mM HEPES buffer, and extra glutamine. […] Surface antigen analysis of HL-60 cells was performed by flow cytometry using a panel of monoclonal antibodies reactive with either myeloid cells or monocytic cells. Terminal deoxynucleotidyl transferase (TdT) was assayed by an immunoperoxidase method using a TdT fluorescence kit. Western blotting of c-myc protein was performed using c-myc antibody 15206D11 (Scripps Clinic and Research Foundation, LaJolla, Calif.).
M, marker proteins of known molecular weight. […] The resulting supernatants were used as cell lysates. […] ND=nondetectable.

[5] = test system: RI and RII cAMP receptor proteins, breast (MDA-MB-231) and colon (LS-174T) cancer cells; assay: cAMP receptor protein levels, breast and colon cancer cells (FIG. 6); type: cell-based, human; conditions: for RI and RII receptor levels: three days, FIG. 6
Experimental: Photoactivated incorporation of 8-N3 [^32 P] was performed as described below.
M is marker proteins of known molecular weight.
The incubations were carried out at 23° C. for 60 minutes in 96-well immunoplates. […] The gels were fixed, dried, and exposed to X-ray films overnight.

MCF-7 = assay: Growth of MCF-7 cells (Tables 3, 11); type: cell-based; conditions: Homo sapiens, MCF7, 72 h
Experimental: All breast cancer cell lines were grown in IMEM supplemented with 10% fetal bovine serum, HEPES 20 mM, penicillin-streptomycin, and extra glutamine. Colon carcinoma cell lines were grown in EMEM supplemented with 10% FBS, EMEM, NEAA, HEPES 20 mM, extra glutamine, and penicillin-streptomycin. The cells were grown at 37° C. in humidified incubators in an atmosphere of 5% CO2.
For cell growth experiments, 2-3×10^5 cells/60 mm dish were seeded, and 24 hours later (Day 0), the medium was removed, and fresh medium and the additives were added then and every 48 hours thereafter. The compounds of the present invention were added using 100X concentrated stock solutions. At desired times, cell counts in duplicate were performed on a Coulter counter after harvesting the cells with gentle trypsinization.

[6] = test system: four leukemic cell lines (HL-60, K-562, myc-K562, Molt-4); assay: Growth inhibition of leukemic cell lines; type: cell-based, human; conditions: Homo sapiens; leukemic cell lines, range
[7] = Table 11, 8-Cl-cAMP 10 μM, 8-Cl-adenosine 5 μM, DBcAMP 500 μM, control 100

- IC50 (HL-60): 500 µM
- IC50 (Molt-4; read-out: Inhibition of Growth IC50, Molt-4 (symbol)): > 1000 µM
- IC50 (K-562): 1000 µM
- IC50 (myc-K562): 1000 µM
- IC50 [6]: 500 to 1000 µM
Compound: CCCC(=O)Nc1ncnc2c1ncn2[C@@H]1O[C@@H]2COP(=O)(O)O[C@H]2[C@H]1OC(=O)CCC [DBcAMP, N^6, O^2' -dibutyryl-cAMP, reference compound]
- inhibition at 1000 µM ([1]; Homo sapiens, 1 mM): 15%
- p21 (Relative Level) [2]: 0.8 ± 0.1
- p21 level [2]: slight reduction in p21 level
- tumor response (DMBA-1 mammary carcinoma; Table 5): completely resistant
- Change in mean tumor volume (cm^3) (DMBA-1 mammary carcinoma): 2.60 cm^3
- Change in mean tumor volume (%) (DMBA-1 mammary carcinoma): 9%
- 50% growth inhibition (Molt-4; Molt-4): the 50% growth inhibition could not be obtained
- RI receptor protein level [3]: without appreciable change
- c-myc protein level [4]: did not affect the c-myc protein level
- RI and RII receptor levels [5]: the RI and RII receptor levels remained unchanged; also recorded: did not appreciably affect the RI or RII receptor levels
- inhibition at 500 µM (MCF-7): 20%
- activity at 500 µM (MCF-7; [7]): 80%

Compound: Nc1ncnc2c1nc(Cl)n2[C@@H]1O[C@@H]2COP(=O)(O)O[C@H]2[C@H]1O [8-Cl-cAMP, 8-chloro-adenosine 3': 5'-monophosphate]
- growth inhibition of cancer lines ([1]; densitometry text): 45-70%
- p21 (Relative Level) [2]: 0.1 ± 0.01
- p21 level [2]: markedly decreased level of p21
- Change in mean tumor volume (cm^3) (DMBA-1 mammary carcinoma): 1.60 cm^3
- Change in mean tumor volume (%) (DMBA-1 mammary carcinoma): 61%
- inhibition of tumor growth (DMBA-1 mammary carcinoma; pellet, seven days): 40-50%
- IC50 (HL-60): 10 µM
- IC50 (Molt-4; read-out: Inhibition of Growth IC50, Molt-4): 5 µM
- IC50 (K-562): 20 µM
- IC50 (myc-K562): 20 µM
- RI receptor protein level [3]: markedly decreased
- c-myc protein level [4]: marked reduction of c-myc protein level
- decrease in the RI level ([5]; densitometric tracings): 70-80%
- increase in the ratio of RII to RI ([5]; densitometric tracings): two- to three-fold increase
- RI and RII receptor levels [5]: the cAMP receptor protein with a molecular weight of 52,000 increased appreciably with concomitant decrease of the 48,000 RI receptor protein
- inhibition at 10 µM (MCF-7): 57%
- activity at 10 µM (MCF-7; 10 μM, 3 days, control 100 (Table 3)): 40%
- activity at 10 µM (MCF-7; [7]): 43%
- IC50 [6]: 5 to 20 µM
